Source: patent publication US20250171715A1, “DETERGENT AND CLEANING AGENT CONTAINING ANTIMICROBIAL PEPTIDE” (HENKEL AG & CO. KGAA, priority 2023, published 2025)

What was measured:
[1] = system: Klebsiella pneumoniae ATCC 4352/K2510; type: cell-based; settings: K. pneumoniae; 100 mg/L in water; positive control
Experimental: (§1) The antibacterial activity of the peptides shown in Table 2 was tested at a concentration of 5,000 mg/L in an MPN suspension test (MPN=Most Probable Number) on various microorganisms (Staphylococcus aureus ATCC 6538/[…], initial bacterial count 3.6E±0.6; Klebsiella pneumoniae ATCC 4352/[…], initial bacterial count 6.1E±06). The respective peptide solutions were dissolved in water (control), detergent without enzyme (A) and detergent with enzyme (B) at a concentration of 5,000 mg/L. The MPN suspension test was performed in deep-well microtiter plates (1,000 μl volume per well), each well containing 800 μl application concentration (AWK, prepared in distilled water) with a 1.25-fold concentration of the test substance (final concentration: 5,000 mg/L). In each case, 100 μl of the bacterial suspension was added (final concentration: 1.0E±08 CFU/ml). […] After at least 5 min and a maximum of 30 min inactivation, the number of living test germ cells was determined. […] For evaluation, the growth in the wells, indicated by turbidity of the nutrient broth, was determined visually or using the Tecan reader. The microbicidal activity was calculated using the following formula: RF=K/D or log 10K-log10D, where RF=reduction factor, K=number of CFU/ml without exposure to the product (water control) and D=number of CFU/ml after exposure to the product.

[2] = system: Staphylococcus aureus ATCC 6538/K3212; type: cell-based; settings: S. aureus; 100 mg/L in water; positive control
Experimental: as §1

Substance: Benzalkonium chloride
- Log reduction, Water [1]: >4.40
- Log reduction, Water [2]: >4.65
